# Test results published in patent US5087627A, “Agent for treatment of disorders of the cerebro-neural transmission system” (Santen Pharmaceutical Co., Ltd., priority 1989, dated 1992).
# Where a name gives a salt, the structure may show the parent alone. Read-outs that look alike come from different tables or passages of the source.
# Columns and labels:
# [1] = system: PCA - induced amnesia (impairment of memory); assay: one-trial passive avoidance test in mice, PCA - induced amnesia model
# [2] = biological target: T1, 5-HT2 receptor (Oryctolagus cuniculus, UniProt G1SYA7); assay: antagonistic test against 5-HT2 using vessel (thoracic aorta) of rabbit, 5-HT-induced contraction; design: species or system tissue, rabbit (Japanese white)
# T1 construct: The isolated arteries were helically cut into strips; from tissue; host or cells: thoracic aorta of Japanese white rabbit (helical strips)
# T1 sequence (G1SYA7 1-469): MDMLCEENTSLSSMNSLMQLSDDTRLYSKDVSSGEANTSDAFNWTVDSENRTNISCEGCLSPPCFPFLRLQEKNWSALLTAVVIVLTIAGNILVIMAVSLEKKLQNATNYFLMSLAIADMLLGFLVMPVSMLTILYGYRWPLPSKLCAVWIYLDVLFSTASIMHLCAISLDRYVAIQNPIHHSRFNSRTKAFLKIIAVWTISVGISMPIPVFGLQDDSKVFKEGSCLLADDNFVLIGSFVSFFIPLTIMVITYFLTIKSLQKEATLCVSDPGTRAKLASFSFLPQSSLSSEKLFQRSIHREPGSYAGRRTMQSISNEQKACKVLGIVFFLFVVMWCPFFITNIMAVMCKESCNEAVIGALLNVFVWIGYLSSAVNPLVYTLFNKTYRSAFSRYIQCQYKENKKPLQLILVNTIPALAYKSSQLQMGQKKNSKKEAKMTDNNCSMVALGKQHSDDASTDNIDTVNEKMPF
# Protocol: Therefore, in this test, the efficacy of the Compound was examined using thoracic aorta of rabbit.
# Japanese white rabbits were sacrificed by cervical fracture and exsanguinated. Thoracic aortas were exciesd rapidly. The isolated arteries were helically cut into strips, approximately 3 mm wide, and suspended in 20 ml organ bath chambers containing Krebs-Henseleit solution. Resting tensions of aortas were maintained in 1.5 g. The organ bath chambers were maintained at 37° C. and aerated continuously with 95% O2 -5% CO2.
# After equilibration, 5-HT (10^-6 M) was added into each organ bath chamber. After the 5-HT-induced contraction was ascertained to be constant and reproducible, each test compound were added and 30 minutes after 5-HT was added again, and their effect on 5-HT induced contraction was examined.
# The contraction was measured with various concentrations of the test compound. According to the difference between the contraction caused by pre-treatment with the test compound and by 5-HT alone, the concentration which can inhibit 50% of the contraction caused by 5-HT alone was calculated (IC50).
# [3] = system: CXM - induced amnesia (impairment of memory); design: species or system mice; conditions: mouse, in vivo
# [4] = in words, prior art; cited from earlier work
structure (smiles),measurement,setting,value
"c1ccc(CC(c2ccccc2)N2CCN(CCOc3ccc4c(c3)OCO4)CC2)cc1 (racemic) [compound No. 7, (±)-1-(1,2-Diphenyl)ethyl-4-[2-(3,4-methylenedioxyphenoxy)ethyl]piperazine dihydrochloride]",step-down latency (median),"[1]; mouse, in vivo",155.1 s
same,IC50,[2],2.7 µM
same,step-down latency (median),[3],123.9 s
"CN(C)C(Cc1ccccc1)c1ccccc1 (single isomer, unassigned; (-)) [lefetamine, (-)-N,N-dimethyl-1,2-diphenylethylamine]",analgesic effect,[4],excellent analgesic effect
"c1ccc(CC(c2cccnc2)N2CCN(CCOc3ccc4c(c3)OCO4)CC2)cc1 (racemic) [compound 9, (±)-1-[(2-Phenyl)-1-(3-pyridyl)ethyl]-4-[2-(3,4-methylenedioxyphenoxy)ethyl]piperazine dioxalate]",IC50,[2],4.8 µM
"Fc1ccc(CC(c2ccc(F)cc2)N2CCN(CCOc3ccc4c(c3)OCO4)CC2)cc1 (racemic) [compound No. 10, (±)-1-[1,2-Bis(4-fluorophenyl)]ethyl-4-[2-[(3,4-methylenedioxy)phenoxy]ethyl]piperazine dihydrochloride]",step-down latency (median),"[1]; PCA 5 mg/kg i.p., test compound 1.25 mg/kg p.o., 24 h after training, cut off 300 sec",206.3 s
same,IC50,"[2]; rabbit thoracic aorta strips, 5-HT 10^-6 M, 30 minutes pre-treatment, 37° C., read-out: IC50 (concentration which can inhibit 50% of the contraction caused by 5-HT alone)",2.1 µM
"COc1ccc(CCN2CCN(C(Cc3ccccc3)c3ccncc3)CC2)cc1OC (racemic) [compound 8, (±)-1-[2-Phenyl-1-(4-pyridyl)ethyl]-4-[2-(3,4-dimethoxyphenyl)ethyl]piperazine dioxalate]",IC50,[2],7 µM
